In US10952992B2, “Methods of treating intraocular pressure with activators of Tie-2” (Aerpio Pharmaceuticals, Inc., priority 2015, dated 2021):
Several values for one entry are separate records, joined by “and”; a condition that tells them apart may be missing. Equal values may be shown once.

Assay: Example 2 vitreous humor concentrations
Assay type: in vivo, male New Zealand White rabbits
Settings: for Average Peak Concentration, Vitreous Humor: suspension
Description: To measure the concentration of Compound 1 in plasma and ocular tissues following topical ocular, subcutaneous, and intravitreal administration, New Zealand White rabbits were administered Compound 1, and plasma and ocular samples were collected at pre-determined time points. Compound 1 formulations were prepared fresh on each day of dosing.
Ocular tissue samples from both eyes of each animal were collected and weights were recorded. Plasma and ocular tissue sample concentrations of Compound 1 were determined by LC-MS/MS.
Animals were anesthetized for ocular (topical) and intravitreal dosing following the 12IA7 IACUC protocol. Each rabbit received a bolus dose of test formulation either via topical ocular administration 3 times daily on Days 1 and 2 (at 0, 6, and 12 hours), and once on Day 3 (at 0 hours) into both eyes; via intravitreal administration into both eyes once on Day 1 (at 0 hours); or via subcutaneous administration 2 times daily on Days 1 and 2 (at 0 and 8 hours) and once daily on Day 3 (at 0 hours). Doses were given within an approximately 1 hour window each day where applicable.
On Day 1, for intravitreal administration, or on Day 3, for topical ocular and subcutaneous administration, at the appropriate ocular tissue collection time points, animals were euthanized and both eyes were enucleated immediately. Following enucleation, each eye was rinsed with phosphate-buffered saline. Ocular tissue samples from both eyes of each animal were collected at predetermined time points and weights were recorded. All the samples were frozen immediately on dry ice, and stored at −60° C. to −80° C. pending bioanalysis.
An LC-MS/MS method was developed for the determination of Compound 1 in rabbit aqueous tissues (plasma, aqueous and vitreous humor) and solid ocular tissue samples. A pre-study standard curve was analyzed to determine the specificity, range, and lower limit of quantitation of the method. Plasma and tissue homogenate study samples were extracted and analyzed. All the samples were treated identically to the standards.
One eight-point standard curve was used in each analytical batch. To be accepted, each batch must have had at least five of eight standards with accuracy within ±20% of nominal, except at the lower limit of quantification (LLOQ), where ±25% was acceptable.

[1] = Group 3 (subcutaneous 5 mg/kg/dose, suspension), 0.5 hr
[2] = Group 3 (subcutaneous 5 mg/kg/dose, suspension), 2.0 hr, BLOQ = below 0.2 ng/mL
[3] = Group 5 (intravitreal 2.5 mg/eye, suspension), 6.0 hr
[4] = Group 5 (intravitreal 2.5 mg/eye, suspension), 24 hr
[5] = Group 5 (intravitreal 2.5 mg/eye, suspension), 48 hr

- vitreous humor Average Conc. [1]: 0.40 ng/g
- vitreous humor Conc. OS [1]: 0.227 ng/mL
- vitreous humor Average Conc. (Group 3 (subcutaneous 5 mg/kg/dose, suspension), 1.0 hr): 0.41 ng/g
- vitreous humor Conc. OS (Group 3 (subcutaneous 5 mg/kg/dose, suspension), 1.0 hr, BLOQ = below 0.2 ng/mL): BLOQ
- vitreous humor Conc. OD [2]: BLOQ
- vitreous humor Conc. OS [2]: BLOQ
- vitreous humor Average Conc. (Group 3 (subcutaneous 5 mg/kg/dose, suspension), 4.0 hr): 0.41 ng/g
- vitreous humor Conc. OD (Group 3 (subcutaneous 5 mg/kg/dose, suspension), 4.0 hr, BLOQ = below 0.2 ng/mL): BLOQ
- Average Peak Concentration, Vitreous Humor (Group 3: subcutaneous 5 mg/kg/dose): 0.40 ng/g
- vitreous humor Average Conc. [3]: 479750 ng/g
- vitreous humor Conc. OD [3]: 592000 ng/mL and 432000 ng/mL
- vitreous humor Average Conc. [4]: 408750 ng/g
- vitreous humor Conc. OD [4]: 296000 ng/mL and 491000 ng/mL
- vitreous humor Conc. OS [4]: 528000 ng/mL and 320000 ng/mL
- vitreous humor Average Conc. [5]: 97800 ng/g
- vitreous humor Conc. OD [5]: 75900 ng/mL and 68300 ng/mL
- vitreous humor Conc. OS [5]: 148000 ng/mL and 99000 ng/mL
- vitreous humor Average Conc. (Group 5 (intravitreal 2.5 mg/eye, suspension), 72 hr): 65350 ng/g
- Average Peak Concentration, Vitreous Humor (Group 5: intravitreal 1.54 mg/kg/dose): 479750 ng/g
Structure (SMILES): COC(=O)N[C@@H](Cc1ccccc1)C(=O)N[C@@H](Cc1ccc(NS(=O)(=O)O)cc1)c1csc(-c2cccs2)n1 [Compound 1 free acid]
